Our source for the Activity and IC50 values is ChEMBL document CHEMBL5550223, “Restoration of the Lost Human Beta Defensin-1 Protein in Cancer as a Strategy to Improve the Efficacy of Chemotherapy” (J Med Chem, 2024).

Molecules are shown by their SMILES. Calls of active or inactive are those of the source. The calls are words filed in the database; no cut-off is given here. Positions of bridges follow the written chain, without caps; N, C: chain ends. Residues, ends and D or L forms follow the SMILES beside them.

Data set [1] deals with MDA-MB-231. In words: Activation of CD95 cell death pathway in Fas-resistant human MDA-MB-231 cells pretreated for 6 hrs followed by treated with anti-Fas antibody assessed as increase in CD95 expression measured after 24 hrs by FACS analysis. Format: functional, cell-based. For orientation: Flow cytometry measures light scatter and fluorescence of single cells or particles in a stream.

The subject of data set [2] is PC-3. The data set is described as follows: Cytotoxicity against human PC-3 cells assessed as cell death in presence of docetaxel measured by MTT assay. Format: functional, cell-based. A general note: Tetrazolium assays rely on reduction of a dye to a coloured formazan, in cell work by metabolically active cells.
For data set [3], the system named is MDA-MB-231. In words: Cytotoxicity against human MDA-MB-231 cells assessed as cell death measured by MTT assay. It is filed as functional, cell-based.
Data set [4] in a line: Cytotoxicity against human ABC-TC3995 cells assessed as cell death measured by MTT assay. Format: functional, cell-based.
A short description of data set [5]: Toxicity in NOD-SCID mouse xenografted in human MDA-MB-231 cells assessed as heart histology at 200 mg/kg, ip measured upto day 13 by H and E staining based assay. Format: organism-based. As to conditions: in vivo. For orientation: In xenograft studies the graft and the host belong to different species.
Data set [6] deals with LNCaP. In words: Cytotoxicity against human LNCaP cells assessed as cell death measured by MTT assay. Format: functional, cell-based.
In data set [7] the test system is MDA-MB-231. The data set is described as follows: In vivo antitumor activity against human MDA-MB-231 cells expressing FLuc-EGFP fusion protein xenografted in NOD-SCID mouse assessed as tumor regression at 50 mg/kg, ip measured upto day 13 by optical imaging based assay relative to control. Format: functional, organism-based. As to conditions: time 13.0 day.
Data set [8] is described as follows: Cytotoxicity against human iPSC cells assessed as cell death in presence of docetaxel measured by MTT assay. Format: functional, cell-based.
Data set [9] deals with PC-3. In words: Cytotoxicity against human PC-3 cells assessed as cell death in presence of doxorubicin measured by MTT assay. Format: functional, cell-based.
Data set [10] can be described thus: Toxicity in NOD-SCID mouse xenografted in human MDA-MB-231 cells assessed as kidney histology at 200 mg/kg, ip measured upto day 13 by H and E staining based assay. It is filed as organism-based. As to conditions: in vivo, 312 h, time 13 day.
Data set [11] has as its system DU-145. In words: Cytotoxicity against human DU-145 cells assessed as cell death measured by MTT assay. Format: functional, cell-based.
The subject of data set [12] is DU-145. The data set is described as follows: Cytotoxicity against human DU-145 cells assessed as cell death in presence of docetaxel measured by MTT assay. Format: functional, cell-based.
The subject of data set [13] is MDA-MB-231. In words: In vivo antitumor activity against human MDA-MB-231 cells expressing FLuc-EGFP fusion protein xenografted in NOD-SCID mouse assessed as loss of cellularity of tumor at 200 mg/kg, ip measured upto day 13 by H and E staining based assay. Format: functional, organism-based.
The nature of data set [14]: Cytotoxicity against human ABC-TC3995 cells assessed as cell death in presence of doxorubicin measured by MTT assay. It is filed as functional, cell-based.
Data set [15] deals with LNCaP. The data set is described as follows: Cytotoxicity against human LNCaP cells assessed as cell death in presence of docetaxel measured by MTT assay. It is filed as functional, cell-based.
A short description of data set [16]: Cytotoxicity against human iPSC cells assessed as cell death in presence of doxorubicin measured by MTT assay. It is filed as functional, cell-based.
For data set [17], the system named is LNCaP. In words: Cytotoxicity against human LnCAP cells assessed as cell death in presence of doxorubicin measured by MTT assay. Format: functional, cell-based.
The nature of data set [18]: Cytotoxicity against human iPSC cells assessed as cell death measured by MTT assay. Format: functional, cell-based.
Data set [19] concerns MDA-MB-231. The data set is described as follows: In vivo antitumor activity against human MDA-MB-231 cells expressing FLuc-EGFP fusion protein xenografted in NOD-SCID mouse assessed as tumor regression at 200 mg/kg, ip measured upto day 13 by optical imaging based assay relative to control. As to conditions: time 13.0 day. Format: functional, organism-based.
A short description of data set [20]: Cytotoxicity against human ABC-TC3995 cells assessed as cell death in presence of docetaxel measured by MTT assay. Format: functional, cell-based.
Data set [21] concerns PC-3. The data set is described as follows: Cytotoxicity against human PC-3 cells assessed as dead cells measured after 24 to 72 hrs by FACS based Calcein A/EtBr-dimer LIVE/DEAD cell staining kit. Format: functional.
Data set [22] deals with MDA-MB-231. The data set is described as follows: Cytotoxicity against human MDA-MB-231 cells assessed as cell death in presence of docetaxel measured by MTT assay. Format: functional, cell-based.
Data set [23] deals with PC-3. In words: Cytotoxicity against human PC-3 cells assessed as cell death measured by MTT assay. Format: functional, cell-based.
The subject of data set [24] is MDA-MB-231. The data set is described as follows: Cytotoxicity against human MDA-MB-231 cells assessed as cell death in presence of doxorubicin measured by MTT assay. Format: functional, cell-based.
Data set [25] relates to MDA-MB-231. The data set is described as follows: In vivo antitumor activity against human MDA-MB-231 cells expressing FLuc-EGFP fusion protein xenografted in NOD-SCID mouse assessed as tumor regression at 100 mg/kg, ip measured upto day 13 by optical imaging based assay relative to control. Format: functional, organism-based. As to conditions: time 13.0 day.
For data set [26], the system named is DU-145. The data set is described as follows: Cytotoxicity against human DU-145 cells assessed as cell death in presence of doxorubicin measured by MTT assay. Format: functional, cell-based.
For data set [27], the system named is PC-3. In words: Cytotoxicity against human PC-3 cells assessed as dead cells at 60 uM measured after 24 to 72 hrs by FACS based Calcein A/EtBr-dimer LIVE/DEAD cell staining kit. As to conditions: time 24-72 hrs. It is filed as functional.
For data set [28], the system named is PC-3. In words: Cytotoxicity against human PC-3 cells assessed as dead cells at 30 uM measured after 24 to 72 hrs by FACS based Calcein A/EtBr-dimer LIVE/DEAD cell staining kit. Format: functional. As to conditions: time 24-72 hrs.
The subject of data set [29] is MDA-MB-231. The data set is described as follows: Synergistic cytotoxicity against Fas-resistant human MDA-MB-231 cells assessed as cell death at 10 uM in presence of 3 ug/ml doxorubicin measured after 24 to 72 hrs by fluorescent microscopy. Format: functional. As to conditions: time 24-72 hrs.
A short description of data set [30]: Toxicity in NOD-SCID mouse xenografted in human MDA-MB-231 cells assessed as liver histology at 200 mg/kg, ip measured upto day 13 by H and E staining based assay. As to conditions: in vivo. It is filed as organism-based.
Data set [31] deals with MDA-MB-231. In words: Synergistic cytotoxicity against Fas-resistant human MDA-MB-231 cells assessed as cell death at 10 uM in presence of 1 to 3 ug/ml doxorubicin measured after 24 to 72 hrs by fluorescent microscopy. As to conditions: time 24-72 hrs. It is filed as functional, cell-based.

As for `CC[C@H](C)[C@H](NC(=O)[C@H](CCCCN)NC(=O)[C@@H](NC(=O)[C@H](Cc1ccccc1)NC(=O)[C@@H](NC(=O)[C@@H]1CCCN1C(=O)[C@H](CS)NC(=O)[C@H](C)NC(=O)[C@H](CO)NC(=O)[C@H](Cc1ccc(O)cc1)NC(=O)[C@H](CC(C)C)NC(=O)[C@H](CS)NC(=O)[C@H](CCC(N)=O)NC(=O)CNC(=O)CNC(=O)[C@H](CO)NC(=O)[C@H](CO)NC(=O)[C@@H](NC(=O)[C@H](CS)NC(=O)[C@H](CC(N)=O)NC(=O)[C@H](Cc1ccc(O)cc1)NC(=O)[C@H](Cc1c[nH]cn1)NC(=O)[C@@H](N)CC(=O)O)C(C)C)[C@@H](C)CC)[C@@H](C)O)C(=O)N[C@@H](CCC(N)=O)C(=O)NCC(=O)N[C@H](C(=O)N[C@@H](CS)C(=O)N[C@@H](Cc1ccc(O)cc1)C(=O)N[C@@H](CCCNC(=N)N)C(=O)NCC(=O)N[C@@H](CCCCN)C(=O)N[C@@H](C)C(=O)N[C@@H](CCCCN)C(=O)N[C@@H](CS)C(=O)N[C@@H](CS)C(=O)N[C@@H](CCCCN)C(=O)O)[C@@H](C)O` (H-DHYNCVSSGGQCLYSACPIFTKIQGTCYRGKAKCCK-OH), the result in the data set with MDA-MB-231 [1] was inactive.

For orientation: IC50 means the concentration that gives 50% inhibition. As for `CC[C@H](C)[C@@H]1NC(=O)[C@H](CCCCN)NC(=O)[C@H]([C@@H](C)O)NC(=O)[C@H](Cc2ccccc2)NC(=O)[C@H]([C@@H](C)CC)NC(=O)[C@@H]2CCCN2C(=O)[C@@H]2CSSC[C@@H]3NC(=O)[C@H](CCCCN)NC(=O)[C@H](C)NC(=O)[C@H](CCCCN)NC(=O)CNC(=O)[C@H](CCCNC(=N)N)NC(=O)[C@H](Cc4ccc(O)cc4)NC(=O)[C@H](CSSC[C@H](NC(=O)[C@H](CCC(N)=O)NC(=O)CNC(=O)CNC(=O)[C@H](CO)NC(=O)[C@H](CO)NC(=O)[C@H](C(C)C)NC(=O)[C@@H](NC(=O)[C@H](CC(N)=O)NC(=O)[C@H](Cc4ccc(O)cc4)NC(=O)[C@H](Cc4c[nH]cn4)NC(=O)[C@@H](N)CC(=O)O)CSSC[C@@H](C(=O)N[C@@H](CCCCN)C(=O)O)NC3=O)C(=O)N[C@@H](CC(C)C)C(=O)N[C@@H](Cc3ccc(O)cc3)C(=O)N[C@@H](CO)C(=O)N[C@@H](C)C(=O)N2)NC(=O)[C@H]([C@@H](C)O)NC(=O)CNC(=O)[C@H](CCC(N)=O)NC1=O` (H-DHYNCVSSGGQCLYSACPIFTKIQGTCYRGKAKCCK-OH; disulfide 5-35, 12-27, 17-34), the IC50 in the data set on PC-3 [2] was 1.2 µM; with MDA-MB-231 [3], 24.5 µM; in [4] it was above 250 µM; with LNCaP [6] it was 12.4 µM; in [8], 84.5 µM; in the data set on PC-3 [9], 0.95 µM. Besides, the IC50 in the data set with DU-145 [11] came to 5.8 µM; in the data set with DU-145 [12], 0.45 µM; in [14], 89.5 µM; with LNCaP [15], 0.15 µM; in [16], 94.5 µM; in the data set on LNCaP [17], 0.11 µM. For the same molecule, the IC50 in data set [18] was above 250 µM; in data set [20], 78.6 µM; with PC-3 [21] it was 20 µM; in the data set on MDA-MB-231 [22] it was 6.5 µM; in the data set on PC-3 [23] it was 26.5 µM; in the data set with MDA-MB-231 [24], 3.8 µM. Also, in the data set with DU-145 [26], the IC50 was 0.25 µM. In addition, the Activity result was “Non-Toxic” in [5]; “Non-Toxic” in data set [10]; “Dose-Dependent Effect” in the data set with MDA-MB-231 [1]; 97.2% in the data set with PC-3 [27]; 63.4% in the data set on PC-3 [28]; above 90% with MDA-MB-231 [29]. For the same molecule, the Activity entry in data set [30] was “Non-Toxic”. Further, the outcome with MDA-MB-231 [7] was inactive. Also, the result with MDA-MB-231 [13], in the data set with MDA-MB-231 [19], in the data set with MDA-MB-231 [25] and in the data set on MDA-MB-231 [31] was Active.

For `CC(=O)O[C@@]12CO[C@@H]1C[C@H](O)[C@@]1(C)C(=O)[C@H](O)C3=C(C)[C@@H](OC(=O)[C@H](O)[C@@H](NC(=O)OC(C)(C)C)c4ccccc4)C[C@@](O)([C@@H](OC(=O)c4ccccc4)[C@H]21)C3(C)C` [DOCETAXEL ANHYDROUS], the IC50 in the data set with MDA-MB-231 [3] was 38.9 µM; in data set [4], 16.5 µM; with LNCaP [6], 12.3 µM; in the data set on DU-145 [11], 5.4 µM; in data set [18], 18.6 µM; in the data set on PC-3 [23], 12.5 µM.

In the case of `COc1cccc2c1C(=O)c1c(O)c3c(c(O)c1C2=O)C[C@@](O)(C(=O)CO)C[C@@H]3O[C@H]1C[C@H](N)[C@H](O)[C@H](C)O1` [DOXORUBICIN], the IC50 with MDA-MB-231 [3] stood at 46.5 µM; in data set [4], 12.5 µM; in the data set with LNCaP [6], 1.07 µM; with DU-145 [11], 12.4 µM; in [18], 6.8 µM; in the data set with PC-3 [23], 17.5 µM.
